Measurements reported in the NIST ThermoML archive (doi:10.1007/s10765-011-0995-x).
Numbers after ± are expanded uncertainties.

Legend:
[1] = refractive index (Na D-line) (dimensionless); conditions: 101.33 kPa, Liquid, Standard Abbe refractometry
[2] = 101 kPa, Liquid; for speed of sound: Pulse-echo method
[3] = xn = mol fraction of the nth substance listed; conditions: 101 kPa, Liquid, x2 = 0; for speed of sound: Pulse-echo method
[4] = refractive index (Na D-line) (dimensionless); xn = mol fraction of the nth substance listed; conditions: 101 kPa, Liquid, Standard Abbe refractometry, x2 = 0

With Cc1ccccc1Cl [2-chlorotoluene] the refractive index ([1]; 298.15 K) was 1.5219 ± 0.0005, the refractive index ([1]; 303.15 K) was 1.5189 ± 0.0005 and the refractive index ([1]; 308.15 K) was 1.5169 ± 0.0005. The mass density ([2]; 298.15 K) was 1077.41 ± 0.3 kg/m3, the viscosity ([2]; 298.15 K) was 0.943 ± 0.013 mPa·s and the speed of sound ([2]; 298.15 K) was 1301.2 ± 1.3 m/s. For the same molecule, the mass density ([2]; 303.15 K) was 1072.83 ± 0.3 kg/m3, the viscosity ([2]; 303.15 K) was 0.885 ± 0.012 mPa·s and the speed of sound ([2]; 303.15 K) was 1284.1 ± 1.3 m/s. The mass density ([2]; 308.15 K) was 1068.24 ± 0.29 kg/m3, the viscosity ([2]; 308.15 K) was 0.805 ± 0.011 mPa·s and the speed of sound ([2]; 308.15 K) was 1266.1 ± 1.3 m/s.
Molecule Cc1cccc(Cl)c1 [3-chlorotoluene] has a refractive index ([1]; 298.15 K) of 1.5207 ± 0.0005, a refractive index ([1]; 303.15 K) of 1.5189 ± 0.0005 and a refractive index ([1]; 308.15 K) of 1.5169 ± 0.0005. It also gave a mass density ([2]; 298.15 K) of 1067.29 ± 0.29 kg/m3, a viscosity ([2]; 298.15 K) of 0.798 ± 0.011 mPa·s and a speed of sound ([2]; 298.15 K) of 1298.3 ± 1.3 m/s. It also gave a mass density ([2]; 303.15 K) of 1062.81 ± 0.28 kg/m3, a viscosity ([2]; 303.15 K) of 0.746 ± 0.011 mPa·s and a speed of sound ([2]; 303.15 K) of 1280.1 ± 1.3 m/s. It also gave a mass density ([2]; 308.15 K) of 1058.33 ± 0.27 kg/m3, a viscosity ([2]; 308.15 K) of 0.705 ± 0.01 mPa·s and a speed of sound ([2]; 308.15 K) of 1262.1 ± 1.3 m/s.
With Cc1ccc(Cl)cc1 [4-chlorotoluene] the refractive index ([1]; 298.15 K) was 1.5188 ± 0.0005, the refractive index ([1]; 303.15 K) was 1.5166 ± 0.0005 and the refractive index ([1]; 308.15 K) was 1.5138 ± 0.0005. For the same molecule, the mass density ([2]; 298.15 K) was 1065.11 ± 0.27 kg/m3, the viscosity ([2]; 298.15 K) was 0.828 ± 0.011 mPa·s and the speed of sound ([2]; 298.15 K) was 1289.1 ± 1.2 m/s. It also gave a mass density ([2]; 303.15 K) of 1059.51 ± 0.26 kg/m3, a viscosity ([2]; 303.15 K) of 0.784 ± 0.011 mPa·s and a speed of sound ([2]; 303.15 K) of 1271 ± 1.2 m/s. The mass density ([2]; 308.15 K) was 1053.9 ± 0.25 kg/m3, the viscosity ([2]; 308.15 K) was 0.73 ± 0.011 mPa·s and the speed of sound ([2]; 308.15 K) was 1253.1 ± 1.2 m/s.
Work on CCCCCCCCCCO [decan-1-ol] yielded a refractive index ([1]; 298.15 K) of 1.4346 ± 0.0005, a refractive index ([1]; 303.15 K) of 1.4326 ± 0.0005 and a refractive index ([1]; 308.15 K) of 1.4305 ± 0.0005. It also gave a mass density ([2]; 298.15 K) of 826.41 ± 0.43 kg/m3, a viscosity ([2]; 298.15 K) of 11.82 ± 0.11 mPa·s and a speed of sound ([2]; 298.15 K) of 1380.1 ± 1.3 m/s. It also gave a mass density ([2]; 303.15 K) of 822.92 ± 0.44 kg/m3, a viscosity ([2]; 303.15 K) of 9.766 ± 0.095 mPa·s and a speed of sound ([2]; 303.15 K) of 1364.9 ± 1.3 m/s. The mass density ([2]; 308.15 K) was 819.42 ± 0.44 kg/m3, the viscosity ([2]; 308.15 K) was 8.13 ± 0.081 mPa·s and the speed of sound ([2]; 308.15 K) was 1346 ± 1.3 m/s.
With CCCCCCCCCCO [decan-1-ol] + Cc1ccc(Cl)cc1 the speed of sound ([3]; 298.15 K) was 1380.1 ± 1.3 m/s, the mass density ([3]; 298.15 K) was 826.41 ± 0.43 kg/m3 and the viscosity ([3]; 298.15 K) was 11.82 ± 0.11 mPa·s. The speed of sound ([3]; 303.15 K) was 1364.9 ± 1.3 m/s, the mass density ([3]; 303.15 K) was 822.92 ± 0.44 kg/m3 and the viscosity ([3]; 303.15 K) was 9.766 ± 0.095 mPa·s. The speed of sound ([3]; 308.15 K) was 1346 ± 1.3 m/s, the mass density ([3]; 308.15 K) was 819.42 ± 0.44 kg/m3 and the viscosity ([3]; 308.15 K) was 8.13 ± 0.081 mPa·s. The refractive index ([4]; 298.15 K) was 1.4346 ± 0.0005, the refractive index ([4]; 303.15 K) was 1.4326 ± 0.0005 and the refractive index ([4]; 308.15 K) was 1.4305 ± 0.0005.
With CCCCCCCCCCO [decan-1-ol] + Cc1cccc(Cl)c1 the speed of sound ([3]; 298.15 K) was 1380.1 ± 1.3 m/s, the mass density ([3]; 298.15 K) was 826.41 ± 0.43 kg/m3 and the viscosity ([3]; 298.15 K) was 11.82 ± 0.11 mPa·s. It also gave a speed of sound ([3]; 303.15 K) of 1364.9 ± 1.3 m/s, a mass density ([3]; 303.15 K) of 822.92 ± 0.44 kg/m3 and a viscosity ([3]; 303.15 K) of 9.766 ± 0.095 mPa·s. It also gave a speed of sound ([3]; 308.15 K) of 1346 ± 1.3 m/s, a mass density ([3]; 308.15 K) of 819.42 ± 0.44 kg/m3 and a viscosity ([3]; 308.15 K) of 8.13 ± 0.081 mPa·s. The refractive index ([4]; 298.15 K) was 1.4346 ± 0.0005, the refractive index ([4]; 303.15 K) was 1.4326 ± 0.0005 and the refractive index ([4]; 308.15 K) was 1.4305 ± 0.0005.
CCCCCCCCCCO [decan-1-ol] + Cc1ccccc1Cl gave a speed of sound ([3]; 298.15 K) of 1380.1 ± 1.3 m/s, a mass density ([3]; 298.15 K) of 826.41 ± 0.43 kg/m3 and a viscosity ([3]; 298.15 K) of 11.82 ± 0.11 mPa·s. It also gave a speed of sound ([3]; 303.15 K) of 1364.9 ± 1.3 m/s, a mass density ([3]; 303.15 K) of 822.92 ± 0.44 kg/m3 and a viscosity ([3]; 303.15 K) of 9.766 ± 0.095 mPa·s. For the same molecule, the speed of sound ([3]; 308.15 K) was 1346 ± 1.3 m/s, the mass density ([3]; 308.15 K) was 819.42 ± 0.44 kg/m3 and the viscosity ([3]; 308.15 K) was 8.13 ± 0.081 mPa·s. The refractive index ([4]; 298.15 K) was 1.4346 ± 0.0005, the refractive index ([4]; 303.15 K) was 1.4326 ± 0.0005 and the refractive index ([4]; 308.15 K) was 1.4305 ± 0.0005.
